From patent US20240344145A1, “PHARMACOGENOMICS SCORE TO MAKE DECISIONS ON THERAPY AUGMENTATION IN AML” (University of Florida Research Foundation, Incorporated, priority 2021, published 2024)

System: ara-C metabolic pathway genes
Assay: Association of ara-C pathway SNP genotypes with MRD1, EFS and OS in AML02 (logistic regression and Cox models; also within LDAC and HDAC arms)
Design: species or system human
Settings: within arm of AML02
Description: Genomic DNA from patients enrolled in the multi-site St. Jude AML02 trial was genotyped for 155 SNPs in 16 genes of relevance to ara-C pharmacology using sequenom iPlex platform that uses MALDI-TOF based chemistry at University of Minnesota, Biomedical Genomics Center. SNPs were selected based on previously reported studies. For SNPs lacking literature on genetic variation, SNPs were selected to capture LD blocks (European and African ancestry) on a gene. Of 155 SNPs, 1 SNP was excluded due to low call rate (<90%), 47 SNPs were excluded due to minimum allele frequency of less than 5%, 11 SNPs were excluded due to high LD (r^2>0.9) with other SNPs; two SNPs were excluded because of deviation from Hardy-Weinberg equilibrium. Genotype for the COG-AAML0531 cohort for the selected SNPs was obtained using sequenom platform or TaqMan genotyping assays, and for a few SNPs was extracted from the data available on Illumina 2.5 Omni array. Genotype calls from multiple platforms were confirmed across multiple samples randomly collected from the cohort.
SNP genotype groups in three different modes of inheritance (additive, dominant, and recessive) were tested for association with MRD1 using logistic regression models. Odds ratio (OR) and 95% confidence interval (CI) were calculated for each test. SNPs with association P-value<0.05 were considered significant. Cox-proportional hazard models were used to evaluate association of genotype groups with EFS or OS. Hazard ratio (HR) and 95% CI were calculated for each test. p-value<0.05 was considered statistically significant. Given initial risk group assignments are well-established prognostic factors associated with outcome, outcome association analysis of SNPs with and without adjusting for risk group was also performed to identify SNPs that are associated with outcome independent of risk group.
SNPs with p<0.15 in risk-adjusted univariate evaluation with clinical endpoints (MRD1, EFS, and OS) were tested for all possible combinations with a maximum of three SNPs per model in multivariable logistic regression models for association with MRD1 and Cox-proportional hazard models for association with EFS and OS. Analysis for up to 3 SNP combinations was restricted due to computational challenges as increasing the maximum number of SNPs per model drastically increases the number of models as 1000 permutations were run for each model. Models were ordered according to their Bayesian Information Criterion (BIC) and weight in favor of each model. One thousand permutation tests were performed for each model to determine statistical significance. The six unique SNPs from the most significant models for EFS and MRD1 were included in the development of the ACS10 score as described in the results section.
The multicenter AML02 clinical trial randomly assigned subjects to receive low dose ara-C (LDAC: 100 mg/m^2; n=91 patients) or high dose ara-C(HDAC: 3 g/m^2; n=75 patients) in combination with daunorubicin and etoposide as the first course of chemotherapy as described above in patient cohort section. Thus, the association of SNPs with outcome within each arm separately was also explored (Table 5).

[1] = rs4917384 (NT5C2, WT C, VAR T), MOI D
[2] = rs4980345 (SLC28A1, WT G, VAR A), MOI A
[3] = rs6552622 (DCTD, WT C, VAR G), MOI D
[4] = rs6742272 (RRM2, WT C, VAR G), MOI A
[5] = rs6834938 (DCTD, WT C, VAR T), MOI R
[6] = rs6946062 (NT5C3, WT T, VAR C), MOI D
[7] = rs7533657 (CTPS1, WT C, VAR T), MOI R
[8] = rs7543016 (CMPK1, WT C, VAR G), MOI R
[9] = rs7776847 (NT5C3, WT G, VAR A), MOI A
[10] = rs7874528 (SLC28A3, WT G, VAR T), MOI D
[11] = rs10252880 (NT5C3, WT G, VAR C), MOI A
[12] = rs10767827 (RRM1, WT G, VAR T), MOI D
[13] = rs10786736 (NT5C2, WT G, VAR C), MOI D
[14] = rs10916819 (CDA, WT A, VAR G), MOI D
[15] = rs11140525 (SLC28A3, WT G, VAR A), MOI A
[16] = rs11191558 (NT5C2, WT G, VAR A), MOI D
[17] = rs11737887 (DCTD, WT T, VAR C), MOI A
[18] = rs12554292 (SLC28A3, WT C, VAR T), MOI D
[19] = rs12806698 (RRM1, WT C, VAR A), MOI D
[20] = rs17103168 (CMPK1, WT A, VAR G), MOI D

For Nc1ccn([C@@H]2O[C@H](CO)[C@@H](O)[C@@H]2O)c(=O)n1 [LDAC, cytarabine], the “EFS HR (95% CI)” value [1] was 1.04 (0.76-1.44), the “MRD1 OR (95% CI)” value [1] was 0.78 (0.51-1.19) and the “OS HR (95% CI)” value [1] was 0.87 (0.58-1.29). For the same molecule, the “EFS HR (95% CI)” value [2] was 1.81 (1-3.26), the “MRD1 OR (95% CI)” value [2] was 1.08 (0.45-2.58) and the “OS HR (95% CI)” value [2] was 1.84 (0.95-3.55). The “EFS HR (95% CI)” value [3] was 1.05 (0.7-1.59), the “MRD1 OR (95% CI)” value [3] was 0.86 (0.49-1.49) and the “OS HR (95% CI)” value [3] was 1.22 (0.77-1.94). For the same molecule, the “EFS HR (95% CI)” value [4] was 1.5 (0.95-2.36), the “MRD1 OR (95% CI)” value [4] was 0.49 (0.25-0.96) and the “OS HR (95% CI)” value [4] was 1.43 (0.83-2.48). For the same molecule, the “EFS HR (95% CI)” value [5] was 1.4 (0.83-2.35), the “MRD1 OR (95% CI)” value [5] was 1.92 (0.82-4.48) and the “OS HR (95% CI)” value [5] was 1.75 (1.02-3). The “EFS HR (95% CI)” value [6] was 0.75 (0.54-1.04), the “MRD1 OR (95% CI)” value [6] was 0.94 (0.61-1.46) and the “OS HR (95% CI)” value [6] was 0.58 (0.39-0.87). For the same molecule, the “EFS HR (95% CI)” value [7] was 1.12 (0.62-2.02), the “MRD1 OR (95% CI)” value [7] was 0.9 (0.36-2.27) and the “OS HR (95% CI)” value [7] was 1.05 (0.51-2.16). For the same molecule, the “EFS HR (95% CI)” value [8] was 0.85 (0.55-1.32), the “MRD1 OR (95% CI)” value [8] was 2.01 (1.13-3.58) and the “OS HR (95% CI)” value [8] was 0.67 (0.37-1.23). The “EFS HR (95% CI)” value [9] was 1.15 (0.64-2.09), the “MRD1 OR (95% CI)” value [9] was 0.92 (0.42-2) and the “OS HR (95% CI)” value [9] was 1.91 (1.01-3.62). For the same molecule, the “EFS HR (95% CI)” value [10] was 0.97 (0.66-1.44), the “MRD1 OR (95% CI)” value [10] was 1.93 (1.12-3.32) and the “OS HR (95% CI)” value [10] was 0.89 (0.54-1.45). The “EFS HR (95% CI)” value [11] was 1.21 (0.74-1.98), the “MRD1 OR (95% CI)” value [11] was 0.97 (0.51-1.82) and the “OS HR (95% CI)” value [11] was 1.98 (1.13-3.44). The “EFS HR (95% CI)” value [12] was 1.09 (0.76-1.57), the “MRD1 OR (95% CI)” value [12] was 0.98 (0.6-1.61) and the “OS HR (95% CI)” value [12] was 0.97 (0.61-1.53). For the same molecule, the “EFS HR (95% CI)” value [13] was 1.45 (1.03-2.03), the “MRD1 OR (95% CI)” value [13] was 1.1 (0.66-1.83) and the “OS HR (95% CI)” value [13] was 1.37 (0.9-2.08). The “EFS HR (95% CI)” value [14] was 1.77 (1.14-2.75), the “MRD1 OR (95% CI)” value [14] was 1.75 (1.08-2.83) and the “OS HR (95% CI)” value [14] was 2.05 (1.12-3.74). The “EFS HR (95% CI)” value [15] was 0.98 (0.63-1.54), the “MRD1 OR (95% CI)” value [15] was 1.44 (0.81-2.58) and the “OS HR (95% CI)” value [15] was 1.16 (0.68-1.97). For the same molecule, the “EFS HR (95% CI)” value [16] was 1.49 (1.05-2.1), the “MRD1 OR (95% CI)” value [16] was 0.96 (0.56-1.64) and the “OS HR (95% CI)” value [16] was 1.32 (0.85-2.05). For the same molecule, the “EFS HR (95% CI)” value [17] was 1.39 (0.73-2.66), the “MRD1 OR (95% CI)” value [17] was 0.95 (0.4-2.25) and the “OS HR (95% CI)” value [17] was 1.76 (0.8-3.86). The “EFS HR (95% CI)” value [18] was 0.71 (0.42-1.2), the “MRD1 OR (95% CI)” value [18] was 1.26 (0.72-2.21) and the “OS HR (95% CI)” value [18] was 0.78 (0.43-1.42). For the same molecule, the “EFS HR (95% CI)” value [19] was 0.98 (0.69-1.39), the “MRD1 OR (95% CI)” value [19] was 1.14 (0.72-1.8) and the “OS HR (95% CI)” value [19] was 1.19 (0.79-1.79). The “EFS HR (95% CI)” value [20] was 0.96 (0.69-1.32), the “MRD1 OR (95% CI)” value [20] was 0.55 (0.35-0.87) and the “OS HR (95% CI)” value [20] was 1.03 (0.69-1.52).
